Data reported in patent US12357691B2, “Antibodies specifically binding to CD147 and uses thereof” (Alphelix Biotech Co., Ltd., priority 2022, dated 2025).
Each block holds one molecule with its values, some of them ahead of it.

Key:
[1] = test system: patient-derived NSCLC organoid; assay: Organoid drug response assay (CellTiter-Glo); assay type: cell-based, human; conditions: three days of drug incubation; three patient models
Description: All procedures performed involving human participants were approved by the Ethics Committee of Shanghai Jiao Tong University School of Medicine and were in accordance with the ethical standards of Helsinki Declaration (as revised in 2013). All the donors signed an informed consent form. Freshly excised tumor samples from patients were kept in MACS tissue storage solution (Miltenyi) at 4° C. upon harvest. Tumor tissues were minced into small pieces on ice, then incubated with 0.001% DNase (Sigma-Aldrich, MO, USA), 1 mg/mL collagenase/dispase (Roche, IN, USA), 200 U/mL penicillin, […], and […] amphotericin B (2% antibiotics, Sigma) in DMEM/F12 medium (Thermofisher) at 37° C. for three hours with gentle agitation and intermittent resuspension. Thereafter, the digested tissue suspension was repeatedly triturated via pipetting and passed through a 70 μm filter. The strained suspension was centrifuged at 112×g for three minutes, and red blood cells were lysed using lysis buffer (00443357, Thermofisher) for five minutes. […]
The organoids cultured over two weeks were harvested and dissociated using 1× TrypLe (Thermofisher). […] The plates were agitated for 30 minutes at room temperature (10° C.-30° C.) prior to measuring luminescence.

[2] = test system: peripheral blood mononuclear cells (PBMC); assay: Toxicity on patients' PBMC; assay type: cell-based, human
Description: Then, treating organoids in presence of 5 μg/mL pembrolizumab, in combination with either of these agents (AZD3965 at 0.1 μM, GSK2837808A at 1 μM, and WZHAb10 at 0.0006 μM) and each PBMC (FIGS. 18, 19 and 20). IgG was used as control in FIG. 18, IgG and/or vehicle were used as control in FIGS. 19-20.

WT MCT1/BSG-2 (mouse) = WT MCT1/BSG-2 (mouse) (UniProt P53986)
WT MCT4/BSG-2 (mouse) = WT MCT4/BSG-2 (mouse) (UniProt P57787)

Molecule: Cc1[nH]nc(C(F)(F)F)c1Cc1sc2c(c1C(=O)N1C[C@](C)(O)CO1)c(=O)n(C)c(=O)n2C(C)C [AZD3965]
- anti-proliferative effect of single agent on organoids [1]: moderate anti-proliferative effect
- effect on T cell growth (PBMC) ([2]; at 0.1 μM): little effects on T cell growth

Molecule: COc1ncc(-c2ccc3c(Nc4cc(Oc5cc(F)cc(F)c5)cc(C(=O)O)c4)c(S(=O)(=O)NC4CC4)cnc3c2)c(OC)n1 [GSK2837808A]
- anti-proliferative effect of single agent on organoids [1]: moderate anti-proliferative effect
- effect on T cell growth (PBMC) ([2]; at 1 μM): little effects on T cell growth

- transport activity (H+ influx, H+-pyruvate symport in proteoliposomes) (WT MCT1/BSG-2 (mouse)): 75%
- transport activity (H+ influx, H+-L-lactate symport in proteoliposomes) (WT MCT4/BSG-2 (mouse)): 50%
B1: WZHAb10 (antibody, V domains shown)
VH: QVQLVQSGAEVKKPGASVKVSCKASGYTFTNYWIHWVRQAPGQGLEWMGMIHPNSGSINYNEKFKTRVTMTRDTSTSTVYMELSSLRSEDTAVYYCARVGSGSLDYWGQGTLVTVSS
VL: EIVLTQSPATLSLSPGERATLSCRASQSISDYLHWYQQKPGQAPRLLIKYVSQSISGIPARFSGSGSGTYFTLTISSLEPEDVAVYYCQNGEEAPYTFGQGTKLEIKR
